How the values were obtained:
Experiment in all cases: relative viability (nuclei count vs DMSO), 5 days (fraction); higher = more cells survive
NCI-H596 = system: NCI-H596
Procedure, shortened: (§1)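 Cells from lung cancer lines were seeded into 1536-well plates and, one day later, dosed by pin tool. Treatments were either a single drug or a fixed dose of an anchor drug with five library-drug doses (not always all listed) in √10 steps. After 5 days, nuclei were stained in a one-step fixation (final 0.05% Triton X-100, 1% formaldehyde, 1 ug/ml Hoechst) and counted on 4× images, and relative viability is the treated-to-vehicle nuclei ratio, as the median of duplicate plates.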

NCI-H1703 = system: NCI-H1703
Procedure, shortened: as §1

NCI-H23 = system: NCI-H23
Procedure, shortened: as §1

A549 = system: A549
Procedure, shortened: as §1

IA-LM = system: IA-LM
Procedure, shortened: as §1

NCI-H1993 = system: NCI-H1993
Procedure, shortened: as §1

NCI-H1299 = system: NCI-H1299
Procedure, shortened: as §1

EBC-1 = system: EBC-1
Procedure, shortened: as §1

Calu-6 = system: Calu-6
Procedure, shortened: as §1

NC(=O)Nc1cc(-c2cccc(F)c2)sc1C(=O)N[C@H]1CCCNC1 [AZD7762] + C[C@]1(O)C[C@@H](c2nc(-c3ccc4ccc(-c5ccccc5)nc4c3)c3c(N)nccn32)C1 [Linsitinib] (partner 1 µM)
relative viability (NCI-H596; first compound 0.01 µM): 1.04 | relative viability (NCI-H596; first compound 0.03162 µM): 1.04 | relative viability (NCI-H596; first compound 0.1 µM): 1.03 | relative viability (NCI-H596; first compound 0.3162 µM): 1.1 | relative viability (NCI-H596; first compound 1 µM): 0.923 | relative viability (NCI-H1703; first compound 0.01 µM): 0.688 | relative viability (NCI-H1703; first compound 0.03162 µM): 0.164 | relative viability (NCI-H1703; first compound 0.1 µM): 0.181 | relative viability (NCI-H1703; first compound 0.3162 µM): 0.164 | relative viability (NCI-H1703; first compound 1 µM): 0.177 | relative viability (NCI-H23; first compound 0.01 µM): 0.659 | relative viability (NCI-H23; first compound 0.03162 µM): 0.631 | relative viability (NCI-H23; first compound 0.1 µM): 0.517 | relative viability (NCI-H23; first compound 0.3162 µM): 0.517 | relative viability (NCI-H23; first compound 1 µM): 0.252 | relative viability (A549; first compound 0.01 µM): 0.564 | relative viability (A549; first compound 0.03162 µM): 0.577 | relative viability (A549; first compound 0.1 µM): 0.705 | relative viability (A549; first compound 0.3162 µM): 0.616 | relative viability (A549; first compound 1 µM): 0.494 | relative viability (IA-LM; first compound 0.01 µM): 0.713 | relative viability (IA-LM; first compound 0.03162 µM): 0.663 | relative viability (IA-LM; first compound 0.1 µM): 0.629 | relative viability (IA-LM; first compound 0.3162 µM): 0.628 | relative viability (IA-LM; first compound 1 µM): 0.47 | relative viability (NCI-H1993; first compound 0.01 µM): 0.743 | relative viability (NCI-H1993; first compound 0.03162 µM): 0.678 | relative viability (NCI-H1993; first compound 0.1 µM): 0.666 | relative viability (NCI-H1993; first compound 0.3162 µM): 0.73 | relative viability (NCI-H1993; first compound 1 µM): 0.717 | relative viability (NCI-H1299; first compound 0.01 µM): 0.99 | relative viability (NCI-H1299; first compound 0.03162 µM): 0.995 | relative viability (NCI-H1299; first compound 0.1 µM): 1.04 | relative viability (NCI-H1299; first compound 0.3162 µM): 1 | relative viability (NCI-H1299; first compound 1 µM): 0.323 | relative viability (EBC-1; first compound 0.01 µM): 1.01 | relative viability (EBC-1; first compound 0.03162 µM): 0.877 | relative viability (EBC-1; first compound 0.1 µM): 1.03 | relative viability (EBC-1; first compound 0.3162 µM): 0.884 | relative viability (EBC-1; first compound 1 µM): 0.76 | relative viability (Calu-6; first compound 0.01 µM): 1.02 | relative viability (Calu-6; first compound 0.03162 µM): 0.964 | relative viability (Calu-6; first compound 0.1 µM): 0.944 | relative viability (Calu-6; first compound 0.3162 µM): 0.649 | relative viability (Calu-6; first compound 1 µM): 0.14

C=C1C(=O)O[C@@H](CCCCCCCC)[C@@H]1C(=O)O [C-75] + CS(=O)(=O)N1CCN(Cc2cc3nc(-c4cccc5[nH]ncc45)nc(N4CCOCC4)c3s2)CC1 [Pictilisib] (partner 1 µM)
relative viability (NCI-H596; first compound 0.08 µM): 0.406 | relative viability (NCI-H596; first compound 0.253 µM): 0.39 | relative viability (NCI-H596; first compound 0.8 µM): 0.229 | relative viability (NCI-H596; first compound 2.53 µM): 0.39 | relative viability (NCI-H596; first compound 8 µM): 0.438 | relative viability (NCI-H1703; first compound 0.08 µM): 0.247 | relative viability (NCI-H1703; first compound 0.253 µM): 0.266 | relative viability (NCI-H1703; first compound 0.8 µM): 0.235 | relative viability (NCI-H1703; first compound 2.53 µM): 0.214 | relative viability (NCI-H1703; first compound 8 µM): 0.249 | relative viability (NCI-H23; first compound 0.08 µM): 0.459 | relative viability (NCI-H23; first compound 0.253 µM): 0.686 | relative viability (NCI-H23; first compound 0.8 µM): 0.416 | relative viability (NCI-H23; first compound 2.53 µM): 0.475 | relative viability (NCI-H23; first compound 8 µM): 0.311 | relative viability (A549; first compound 0.08 µM): 0.475 | relative viability (A549; first compound 0.253 µM): 0.571 | relative viability (A549; first compound 0.8 µM): 0.514 | relative viability (A549; first compound 2.53 µM): 0.309 | relative viability (A549; first compound 8 µM): 0.497 | relative viability (IA-LM; first compound 0.08 µM): 0.448 | relative viability (IA-LM; first compound 0.253 µM): 0.294 | relative viability (IA-LM; first compound 0.8 µM): 0.266 | relative viability (IA-LM; first compound 2.53 µM): 0.358 | relative viability (IA-LM; first compound 8 µM): 0.375 | relative viability (NCI-H1993; first compound 0.08 µM): 0.727 | relative viability (NCI-H1993; first compound 0.253 µM): 0.938 | relative viability (NCI-H1993; first compound 0.8 µM): 0.842 | relative viability (NCI-H1993; first compound 2.53 µM): 0.801 | relative viability (NCI-H1993; first compound 8 µM): 0.914 | relative viability (NCI-H1299; first compound 0.08 µM): 0.785 | relative viability (NCI-H1299; first compound 0.253 µM): 0.825 | relative viability (NCI-H1299; first compound 0.8 µM): 0.737 | relative viability (NCI-H1299; first compound 2.53 µM): 0.826 | relative viability (NCI-H1299; first compound 8 µM): 0.634 | relative viability (EBC-1; first compound 0.08 µM): 0.43 | relative viability (EBC-1; first compound 0.253 µM): 0.355 | relative viability (EBC-1; first compound 0.8 µM): 0.315 | relative viability (EBC-1; first compound 2.53 µM): 0.361 | relative viability (EBC-1; first compound 8 µM): 0.179 | relative viability (Calu-6; first compound 0.08 µM): 0.985 | relative viability (Calu-6; first compound 0.253 µM): 1.07 | relative viability (Calu-6; first compound 0.8 µM): 0.811 | relative viability (Calu-6; first compound 2.53 µM): 0.714 | relative viability (Calu-6; first compound 8 µM): 0.817

Source: the supplement of paper PMC10307832
